Measurements as given in US6486153B1, “Phenylindole derivatives as 5-HT2A receptor ligands” (Merck Sharp & Dohme Ltd., priority 1997, dated 2002).
Where a name gives a salt, the structure may show the parent alone.

System: schizophrenic patients
Conditions: multicentre, placebo-controlled study; cited from earlier work

For COc1cccc(C(O)C2CCN(CCc3ccc(F)cc3)CC2)c1OC (stereo not drawn) [MDL-100,907, (+)-α-(2,3-dimethoxyphenyl)-1-[2-(4-fluorophenyl)ethyl]-4-piperidinemethanol], the “antipsychotic efficacy in clinical study” value is listed as “demonstrated efficacy”.

For COc1cccc(C(O)C2CCN(CCc3ccc(F)cc3)CC2)c1OC (stereo not drawn) [MDL-100,907, (+)-α-(2,3-dimethoxyphenyl)-1-[2-(4-fluorophenyl)ethyl]-4-piperidinemethanol], the “neurological adverse effects in clinical study” value is given as “no neurological adverse effects”.

System: not given
Conditions: not given

Compound Brc1ccc2c(CCN3CCCCC3)c(-c3ccccc3)[nH]c2c1 (as salt: oxalate) has a melting point of over 230 °C.
In the case of Brc1cccc2[nH]c(-c3ccccc3)c(CCN3CCCCC3)c12 (as salt: oxalate), the melting point is reported as over 230 °C.

First: COc1cccc2[nH]c(-c3ccccc3)c(CCN3CCCCC3)c12
Second: COc1cccc2c(CCN3CCCCC3)c(-c3ccccc3)[nH]c12 (as salt: oxalate)
The melting point of the first is higher: 260 to 262 °C for the first, 203 to 205 °C for the second.

First: CC(Cc1c(-c2ccccc2)[nH]c2ccccc12)N1CCCCC1 (centres unmarked) (as salt: oxalate)
Second: Cc1ccc2[nH]c(-c3ccccc3)c(CCN3CCCCC3)c2c1 (as salt: oxalate)
The melting point of the first is higher: 240 °C for the first, 163 to 164 °C for the second.

First: Brc1cccc2c(CCN3CCCCC3)c(-c3ccccc3)[nH]c12 (as salt: oxalate)
Second: Clc1cccc2c(CCN3CCCCC3)c(-c3ccccc3)[nH]c12 (as salt: oxalate)
The melting point of the first is higher: 206 to 207 °C for the first, 178 to 179 °C for the second.

First: Brc1ccc2[nH]c(-c3ccccc3)c(CCN3CCCCC3)c2c1 (as salt: oxalate)
Second: Fc1ccc2[nH]c(-c3ccccc3)c(CCN3CCCCC3)c2c1 (as salt: trifluoroacetic acid salt)
The melting point of the first is lower: 121 to 122 °C for the first, 141 to 143 °C for the second.

First: Fc1cc(F)c2[nH]c(-c3ccccc3)c(CCN3CCCCC3)c2c1 (as salt: oxalate)
Second: Fc1ccc2c(CCN3CCCCC3)c(-c3ccccc3)[nH]c2c1 (as salt: oxalate)
The melting point of the first is lower: 185 to 187 °C for the first, 214 to 215 °C for the second.

First: c1ccc(-c2ccc3c(CCN4CCCCC4)c(-c4ccccc4)[nH]c3c2)cc1 (as salt: oxalate)
Second: Cc1cccc2c(CCN3CCCCC3)c(-c3ccccc3)[nH]c12 (as salt: oxalate)
The melting point of the first is lower: 129 to 131 °C for the first, 159 to 161 °C for the second.

Target: human dopamine D2 receptor (Homo sapiens, UniProt P14416)
Conditions: cited from earlier work

Chain of human dopamine D2 receptor (P14416 whole entry): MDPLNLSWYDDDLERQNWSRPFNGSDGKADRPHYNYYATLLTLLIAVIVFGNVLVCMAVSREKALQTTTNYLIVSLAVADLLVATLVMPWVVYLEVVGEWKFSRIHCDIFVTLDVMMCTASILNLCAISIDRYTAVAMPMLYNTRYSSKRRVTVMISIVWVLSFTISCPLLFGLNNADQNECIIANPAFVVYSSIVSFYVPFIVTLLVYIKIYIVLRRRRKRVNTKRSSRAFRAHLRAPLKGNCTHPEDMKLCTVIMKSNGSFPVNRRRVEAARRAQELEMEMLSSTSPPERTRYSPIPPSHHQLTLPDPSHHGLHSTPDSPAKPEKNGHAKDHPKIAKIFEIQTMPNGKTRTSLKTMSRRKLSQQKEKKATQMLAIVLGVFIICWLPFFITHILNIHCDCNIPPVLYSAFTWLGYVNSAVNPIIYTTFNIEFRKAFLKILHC

In the case of COc1cccc(C(O)C2CCN(CCc3ccc(F)cc3)CC2)c1OC (stereo not drawn) [MDL-100,907, (+)-α-(2,3-dimethoxyphenyl)-1-[2-(4-fluorophenyl)ethyl]-4-piperidinemethanol], the “activity at the human dopamine D2 receptor” value is given as “essentially devoid of activity”.
